Test results published in patent US8309790B2, “Animal models for demyelination disorders” (University of Chicago, priority 2005, dated 2012).

Experiments:
mice with EAE = experiment: EAE, CNS delivery of INF-γ at the recovery stage (doxycycline withdrawn at PID7); format: in vivo
Source text: Double transgenic mice that allow for temporally regulated delivery of INF-γ to the CNS (Lin et al., J Neurosci 24:10074-10083 (2004)) were used to assess the role of INF-γ in the pathogenesis of EAE. GFAP/tTA; TRE/IFN-γ double transgenic mice, as described in Example 1 were used to determine the effect of INF-γ on the demyelination caused by EAE. All mice were fed doxycycline from the day of conception to repress the expression of INF-γ, and were immunized with myelin oligodendrocyte protein (MOG35-55) to induce EAE. At day 7 postimmunization (PID7), doxycycline was withdrawn from the experimental group (PID7 DOX−).
The level of INF-γ was determined in the control (DOX+) and the PID7 DOX− mice using an ELISA immunoassay as described in Example 1, and the severity of the disease was assessed as a function of a clinical score. Clinical severity scores were recorded daily according to a 0-5 point scale, where 0=healthy, 1=flaccid tail, 2=ataxia and/or paresis of hind limbs, 3=paralysis of hind limbs and/or paresis of forelimbs, 4=tetraparalysis, and 5=moribund or dead.
The spinal cord from DOX+ and DOX− animals with EAE was immunostained for MBP, and the remyelination of axons was evaluated. The number of oligodendrocytes was determined in the spine from DOX+ and DOX− mice as the number of CC1 positive cells. Axonal damage was evaluated by immunostaining of non-phosphorylated neurofilament-H. Antibodies to non-phosphorylated neurofilament-H were SMI32 diluted to 1:1000 and obtained from Stemberger Monoclonals.
INF-γ is known to induce MHC antigens and activate macrophages and T lymphocytes. The inflammatory effect of INF-γ was studied in the CNS during remyelination by determining the infiltration of T cells and macrophages, and measuring the expression of MHC-1, TNF-a, IL-2, IL-12 and IL-17. Immunohistochemistry was performed in tissues from the DOX+ and DOX− mice with EAE as described in Example 4. Experimental procedures were followed as described in the examples above.

[1] = tested on: Hippocampal organotypic cultures; experiment: Hippocampal organotypic cultures (HOC), in vitro model of myelination, MBP Western blot; format: cell-based; settings: 7 days of 100 U/ml IFN-γ exposure
Experimental: Our hypothesis is that the integrated stress response has the potential to protect oligodendrocytes from the harmful effects of the inflammatory response in patients with multiple sclerosis (MS). […] To test whether agents that prolong eIF2α phosphorylation might provide protection to oligodendrocytes against detrimental inflammatory factors, the effect of Salubrinol (Sal) in the presence of the immune cytokine IFN-γ was tested in an in vitro model of myelination.
HOCs, were prepared and maintained as described previously (Kunkler and Kraig (1997) J Cereb Blood Flow Metab. 17:26-43), and were maintained in vitro for 7 days before use. SAL at various concentrations was combined with 100 U/ml IFN-γ and added to the HOC cultures for 7 days. […] After 7 days of 100 U/ml IFN-γ exposure, the levels of MBP decreased approximately 80% in the HOCs (FIG. 29).

[2] = spinal cord, DOX− compared to DOX+, PID50

interferon-γ [IFN-γ]
number of CC1 positive oligodendrocytes (mice with EAE; DOX− animals, lumbar spinal cord, PID50): significantly decreased | mice that developed hind limb paralysis (mice with EAE; DOX− mice, PID17): 24 of 30 | mean maximum clinical score (mice with EAE; DOX− mice, PID17, 0-5 point scale): 2.69±0.69 | clinical score (mice with EAE; DOX− mice, PID50): ~2 | mice with hind limb paralysis that continued to suffer from the paralysis (mice with EAE; DOX− mice, PID50): 12/24 | axonal damage (non-phosphorylated neurofilament-H immunostaining) (mice with EAE; DOX− vs DOX+ mice): not affected | number of infiltrating T cells and macrophages in the lumbar spinal cord (CD3, CD11b) (mice with EAE; DOX− vs DOX+ mice): did not increase significantly | expression of IL-17 (mice with EAE; [2]): decrease | expression of iNOs and IL-23 (mice with EAE; [2]): did not alter | expression of MHC-1, TNF-a, IL2 and IL-12 (mice with EAE; spinal cord, DOX− compared to DOX+, PID50, real time PCR): increased | decrease of the levels of MBP [1]: approximately 80%
